In patent US12023333B2, “Phenyl-sulfamoyl.benzoyc acids as ERAP1 modulators” (GREY WOLF THERAPEUTICS LIMITED, priority 2019, dated 2024):

Target: T1, Purified ERAP1(37-941)-10His (ERAP1) (Homo sapiens, UniProt Q9NZ08)
T1 construct: Purified ERAP1(37-941)-10His (ERAP1); 10His (C)
Assay: ERAP1 mediated hydrolysis of an amide substrate measured in a biochemical system (10-mer decapeptide substrate)
Settings: 10-mer substrate, 23° C. for 1 h, excitation 279 nm and emission 355 nm; read-out: IC50 vs Decapeptide WRVYEKC(Dnp)ALK-acid (where Dnp is Dinitrophenyl maleimide) (10-mer)
How it was run: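 ERAP1(37-941)-10His preincubated with compound in 25 mM Bis-tris propane, 0.05% HPMC, pH 7.75, then reacted 1 h at 23 °C with 10-mer WRVYEKC(Dnp)ALK (100 μM solution added in equal volume). Fluorescence read at ex 279/em 355 nm; IC50 from 4-parameter fit.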

T1 sequence (Q9NZ08 37-941): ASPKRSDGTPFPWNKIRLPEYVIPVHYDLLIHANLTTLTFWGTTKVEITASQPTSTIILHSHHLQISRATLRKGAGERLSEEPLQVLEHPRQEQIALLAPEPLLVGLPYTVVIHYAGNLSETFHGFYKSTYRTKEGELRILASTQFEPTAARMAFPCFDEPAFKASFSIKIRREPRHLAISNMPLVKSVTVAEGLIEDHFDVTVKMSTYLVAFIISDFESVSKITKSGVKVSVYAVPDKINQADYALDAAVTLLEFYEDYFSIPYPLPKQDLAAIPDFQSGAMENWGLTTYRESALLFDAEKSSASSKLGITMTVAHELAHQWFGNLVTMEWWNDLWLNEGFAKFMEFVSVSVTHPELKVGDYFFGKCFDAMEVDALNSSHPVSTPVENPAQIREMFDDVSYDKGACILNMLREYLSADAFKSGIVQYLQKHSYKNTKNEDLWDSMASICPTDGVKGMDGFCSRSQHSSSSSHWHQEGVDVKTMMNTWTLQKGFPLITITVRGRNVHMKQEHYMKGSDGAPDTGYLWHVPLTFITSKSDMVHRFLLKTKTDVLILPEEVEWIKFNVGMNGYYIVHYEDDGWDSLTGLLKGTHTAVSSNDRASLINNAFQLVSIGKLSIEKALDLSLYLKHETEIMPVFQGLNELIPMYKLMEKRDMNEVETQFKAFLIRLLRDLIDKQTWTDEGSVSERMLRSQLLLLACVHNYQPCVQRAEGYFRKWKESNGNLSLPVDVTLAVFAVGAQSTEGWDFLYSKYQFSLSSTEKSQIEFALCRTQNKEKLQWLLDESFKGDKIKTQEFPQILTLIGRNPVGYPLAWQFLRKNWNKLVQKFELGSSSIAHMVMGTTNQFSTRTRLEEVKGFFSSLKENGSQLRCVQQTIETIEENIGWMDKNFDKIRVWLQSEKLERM

Structure (SMILES) | IC50
CS(=O)(=O)c1ccc(-n2cccc2)c(NS(=O)(=O)c2cc(C(=O)O)ccc2C2CC2)c1 [Example 110, 4-cyclopropyl-3-(N-(5-(methylsulfonyl)-2-(pyrrol-1-yl)phenyl)sulfamoyl) benzoic acid] | < 500 nM
CS(=O)(=O)c1cc(NS(=O)(=O)c2cc(C(=O)O)ccc2C2CC2)c(-c2ccccn2)cc1F [Example 172, 4-cyclopropyl-3-(N-(4-fluoro-5-(methylsulfonyl)-2-(pyridin-2-yl)phenyl)sulfamoyl)benzoic acid] | < 500 nM
COc1ccc(C(=O)O)cc1S(=O)(=O)Nc1cc(C#N)c(F)cc1-c1cccc(F)c1 [Example 112, 3-(N-(4-cyano-3′,5-difluoro-[1,1′-biphenyl]-2-yl)sulfamoyl)-4-methoxybenzoic acid] | < 500 nM
N#Cc1cc(NS(=O)(=O)c2cc(C(=O)O)ccc2C2CC2)c(-c2cscn2)cc1Cl [Example 178, 3-(N-(4-chloro-5-cyano-2-(thiazol-4-yl)phenyl)sulfamoyl)-4-cyclopropylbenzoic acid] | < 500 nM

Results, then the molecule that gave them:

IC50 | Structure (SMILES)
< 500 nM | CCc1ccc(C(=O)O)cc1S(=O)(=O)Nc1cc(C(F)(F)F)ccc1-c1ccc(Cl)s1 [Example 70, 3-(N-(2-(5-chlorothiophen-2-yl)-5-(trifluoromethyl)phenyl)sulfamoyl)-4-ethylbenzoic acid]
< 500 nM | N#Cc1cc(NS(=O)(=O)c2cc(C(=O)O)ccc2C2CC2)c(-c2ncccn2)cc1F [Example 182, 3-(N-(5-cyano-4-fluoro-2-(pyrimidin-2-yl)phenyl)sulfamoyl)-4-cyclopropylbenzoic acid]
< 500 nM | N#Cc1cc(NS(=O)(=O)c2cc(C(=O)O)ccc2C2CC2)c(-c2ncccn2)cc1Cl [Example 179, 3-(N-(4-chloro-5-cyano-2-(pyrimidin-2-yl)phenyl)sulfamoyl)-4-cyclopropylbenzoic acid]
< 500 nM | CCc1ccc(C(=O)O)cc1S(=O)(=O)Nc1cc(C#N)ccc1-c1ccc(F)s1 [Example 101, 3-(N-(5-cyano-2-(5-fluorothiophen-2-yl)phenyl)sulfamoyl)-4-ethylbenzoic acid]
< 500 nM | CCc1ccc(C(=O)O)cc1S(=O)(=O)Nc1cc(C(F)(F)F)ccc1-c1ncccn1 [Example 68, 4-ethyl-3-(N-(2-(pyrimidin-2-yl)-5-(trifluoromethyl)phenyl)sulfamoyl)benzoic acid]
